Data reported in patent US20240382399A1, “ANTISEBOGENIC COMPOSITION, FORMULATION AND USE OF THE COMPOSITION” (CHEMYUNION LTDA., priority 2021, published 2024).

Key:
C. acnes = details: concentrations of 6.9 mM (1 mg/mL) and 8.6 mM (1 mg/mL); cited from earlier work
5-alpha reductase type 1 = experiment: Expression of 5-alpha reductase type 1 in cultured human keratinocytes (real-time PCR); format: cell-based; details: Testosterone 1.10^-8 mol/L, 24 hours; compared to the baseline control, P<0.05
Description: The objective of the test was to evaluate the effects of P19/7 on the expression of 5-alpha reductase type 1 in cultured human keratinocytes. The enzyme 5-alpha-reductase […] acts in the conversion of testosterone into dihydrotestosterone (DHT), a steroid responsible for modulating sebaceous secretion.
To carry out the assay, commercially obtained human keratinocytes (Rio de Janeiro Cell Bank—BCRJ) were cultivated in specific culture media and maintained in a humid incubator at 37° C. containing 5% CO2. When they reached confluence (3rd to 5th passage), cells were seeded in a 6-well plate and incubated with 0.0049% (w/v) P19/7+Testosterone (1.10^−8 mol/L) or Testosterone (1.10^−8 mol/L) for a period of 24 hours. After 24 hours of incubation, RNA was extracted using the PureLink RNA Mini Kit (Thermo Fisher) and quantified using the NanoDrop Lite spectrophotometer (Thermo Scientific). Tests were performed on a StepOnePlus device (Applied Byosystems). To perform real-time PCR, a commercially available analysis system was used (TaqMan® Gene Expression Assays; SRD5A1: (HS00971643_G1, 5-alpha reductase type 1); B2M: Hs00984230_m1; Applied Biosystems), with primers and probes based on sequence consensus using the TaqMan® RNA-to-CT™ 1-step kit (Applied Byosystems). […] Gene expression of 5-alpha reductase was calculated according to Pfaffl (2001).

CCCCCCCC(=O)O [caprylic acid]
inhibitory effect on the growth of C. acnes (C. acnes): no apparent inhibitory effect

C[C@]12CC[C@H]3[C@@H](CCC4=CC(=O)CC[C@@]43C)[C@@H]1CC[C@@H]2O [testosterone, Testosterone]
increase of relative expression of type 1 5-alpha-reductase (5-alpha reductase type 1): 13%
